Reference: ChEMBL document CHEMBL1201862, “PubChem BioAssay data set” (2004)
Calls of active or inactive are those of the source.

What was measured:
[1] = test system: A549; experiment: A549 cell toxicity, dose response, cytotoxicity control, plate reader, cherry-pick samples (AID 687028); type: functional, cell-based; conditions: Homo sapiens
[2] = target: Potassium channel subfamily K member 9 (Homo sapiens, UniProt Q9NPC2); experiment: TASK3 (KCNK9) channel inhibitors, thallium flux, SAR follow-up, selectivity assay for TASK1 inhibitor project, cell-based, FluxOR thallium flux, concentration-response (AID 652211); type: functional;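 also: potency is for inhibitors of the channel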
[3] = T. cruzi intracellular amastigote growth inhibition, dose response, imaging, CA-I/72 strain, bovine embryo skeletal muscle, dry powder (AID 651885); type: functional, cell-based
[4] = target: Kappa-type opioid receptor (Homo sapiens, UniProt P41145); experiment: OPRK1 antagonists, late-stage follow-up, cell-based, fluorescence, dose response (AID 652032); type: functional
[5] = target: NS3 (Hepatitis C virus, UniProt A3EZJ3); experiment: HCV NS3 helicase inhibitor potency, dose response, biochemical, fluorescence polarization, ChemBridge library (AID 743264)
[6] = HEK293 cell cytotoxicity, dose response, cytotoxicity control, cherry-picks, set 5 (AID 1053117); type: functional, cell-based
[7] = HepG2 cell cytotoxicity, dose response, cytotoxicity control, cherry-picks, set 5 (AID 1053118); type: functional, cell-based

NS3, sequence (A3EZJ3 whole entry): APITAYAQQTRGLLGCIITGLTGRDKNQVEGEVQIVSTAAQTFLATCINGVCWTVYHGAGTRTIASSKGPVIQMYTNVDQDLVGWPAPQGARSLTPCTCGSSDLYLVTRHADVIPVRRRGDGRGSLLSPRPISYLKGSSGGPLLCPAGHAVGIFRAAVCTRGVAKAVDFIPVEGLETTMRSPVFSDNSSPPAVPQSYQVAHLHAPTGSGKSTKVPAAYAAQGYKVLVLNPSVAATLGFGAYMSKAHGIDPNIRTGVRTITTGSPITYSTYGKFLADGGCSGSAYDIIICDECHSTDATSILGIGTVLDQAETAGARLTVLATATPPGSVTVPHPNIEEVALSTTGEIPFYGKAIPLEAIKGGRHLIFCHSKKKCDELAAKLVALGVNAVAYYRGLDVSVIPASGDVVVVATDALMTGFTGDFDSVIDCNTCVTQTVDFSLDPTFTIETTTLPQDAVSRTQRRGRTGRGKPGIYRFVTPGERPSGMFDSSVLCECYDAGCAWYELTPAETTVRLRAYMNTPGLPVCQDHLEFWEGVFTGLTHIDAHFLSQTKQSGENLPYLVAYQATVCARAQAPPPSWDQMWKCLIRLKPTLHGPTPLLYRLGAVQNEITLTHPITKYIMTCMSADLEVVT
Potassium channel subfamily K member 9, sequence (Q9NPC2 whole entry): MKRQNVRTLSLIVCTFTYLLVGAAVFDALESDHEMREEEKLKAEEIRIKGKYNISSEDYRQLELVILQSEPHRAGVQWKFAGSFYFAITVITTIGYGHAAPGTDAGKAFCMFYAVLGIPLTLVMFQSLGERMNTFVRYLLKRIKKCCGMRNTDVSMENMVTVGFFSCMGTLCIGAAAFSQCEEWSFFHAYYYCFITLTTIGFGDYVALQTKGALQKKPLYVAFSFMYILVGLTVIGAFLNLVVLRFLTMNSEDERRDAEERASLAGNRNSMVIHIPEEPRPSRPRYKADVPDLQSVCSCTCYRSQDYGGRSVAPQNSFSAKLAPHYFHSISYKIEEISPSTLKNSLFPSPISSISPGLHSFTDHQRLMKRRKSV
Kappa-type opioid receptor, sequence (P41145 whole entry): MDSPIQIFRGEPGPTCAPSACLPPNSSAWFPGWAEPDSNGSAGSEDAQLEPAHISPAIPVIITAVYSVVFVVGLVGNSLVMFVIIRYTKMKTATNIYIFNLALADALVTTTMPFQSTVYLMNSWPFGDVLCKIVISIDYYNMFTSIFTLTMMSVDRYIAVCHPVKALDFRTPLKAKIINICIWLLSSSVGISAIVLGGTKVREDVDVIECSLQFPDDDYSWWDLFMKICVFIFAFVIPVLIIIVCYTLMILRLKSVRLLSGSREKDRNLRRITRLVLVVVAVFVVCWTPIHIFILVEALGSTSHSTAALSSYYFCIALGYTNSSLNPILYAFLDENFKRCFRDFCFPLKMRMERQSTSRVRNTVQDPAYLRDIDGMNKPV

SMILES: Cc1ccc(S(=O)(=O)N(C)C[C@@H]2OCCCC[C@H](C)Oc3ccc(NS(=O)(=O)c4c(C)noc4C)cc3C(=O)N([C@H](C)CO)C[C@@H]2C)cc1
- AC50 [1]: 25.1 µM (active)

SMILES: Cc1cccc(C(=O)Nc2cccc(NC(=O)c3ccco3)c2)c1
- IC50 [2]: 1.67 µM (active)

SMILES: CC(C)N(C)C(=O)c1cccc(NC(=O)c2ccncc2)c1OCCCN(C)Cc1ccc(Cl)cc1
- IC50 [3]: 0.385 µM (active)

SMILES: COC(=O)c1cc(Br)cnc1N1CCC(NC2CCCCC2)C(C)C1 (configuration not stated)
- IC50 [4]: 0.075 µM (active)

SMILES: O=C1NC(=O)N(c2ccccc2F)C(=O)/C1=C/c1ccc(-c2cc(C(=O)O)ccc2Cl)o1
- IC50 [5]: 35 µM (inactive)

SMILES: COc1cccc(-c2ccc3c(c2)[C@H]2[C@H](CCN2S(=O)(=O)c2cccc(OC)c2)[C@@H](CO)N3)c1
- AC50 [6]: 29.7 µM (active)
- AC50 [7]: > 52 µM (inactive)
